Values joined by “and” are separate entries in the source; they are usually repeats but may differ in a detail not shown here. Identical values can stand only once. No end group written: not given here.

Data set [1] has as its target T1, hCB2 receptor (Homo sapiens, UniProt P34972). Kind of data set: cAMP assay in CHO-K1-hCB2 cells (GloSensor). Set-up: expressed in transfected cells; host or cells: CHO-K1. It is filed as cell-based. The conditions noted are these: for EC50: 2-AG, mean (95% CI). On the procedure:
cAMP assays were performed in CHO-K1-hCB2 stably transfected with the pGloSensorTM 22-F plasmid (Promega) as previously described. Briefly, cells were seeded in 96-well plate and after attachment the medium was replaced by 40 µL of equilibration medium (GloSensor™ cAMP Reagent diluted in 5% v v^−1 of CO2-independent medium plus 10% FBS). The plates were incubated for 2 h at RT in the dark. […] Chemiluminescence was monitored continuously starting from immediately after the addition and for 30 min (keeping the plate at RT and in the dark). Basal levels of chemiluminescence (cells plus IBMX and vehicle without forskolin) were subtracted to the measured values. Results were normalized by subtracting the residual cAMP production and expressed as % of vehicle control.

Data set [2] concerns the target T1, hCB2 receptor. Description: [35S]GTPγS assay on hCB2 membranes. It is filed as biochemical. Set-up: expressed in transfected cells; host or cells: CHO-K1. Conditions: for EC50 / [35S]GTPγS assay Max. Effect: 2-AG, mean (95% CI). On the procedure:
Assays were performed as previously described. Clean membranes expressing hCB2 were diluted in silanized plastic tubes with GTPγS binding buffer (50 mM Tris-HCl, 3 mM MgCl2, 0.2 mM EGTA and 100 mM NaCl at pH 7.4 supplemented with 0.5% fatty acid-free BSA) in the presence of 10 μM of GDP and 0.1 nM of [^35S]GTPγS. The mixture was kept on ice until the binding reaction was started by adding the vehicle or compounds. Non-specific binding was measured in presence of 10 μM GTPγS. The tubes were incubated at 30 °C for 90 min under shaking and then put on ice to stop the reaction. An aliquot (185 μL) of the reaction mixture was rapidly filtered through a 96-well microplate bonded with GF/B glass fibre filters previously pre-soaked with ice-cold washing buffer (50 mM of Tris-HCl pH 7.4 plus 0.1% fatty acid-free BSA). The filters were washed six times with 180 µL of washing buffer under vacuum. The radioactivity was measured after the addition of 45 µL of MicroScint20 scintillation cocktail. Specific binding was calculated by subtracting the residual radioactivity signal obtained in presence of an excess of GTPγS and the results were expressed as % of vehicle control.

Data set [3] addresses T1, hCB2 receptor. Kind of data set: Equilibrium binding / displacement of fluorescent pepcan-F4 on CHO-K1-hCB2 cells. Set-up: expressed in transfected cells; host or cells: CHO-K1. Conditions: for Ki: 100 nM pepcan-F4. On the procedure:
The equilibrium dissociation constant (Kd value) of the fluorescein-labeled pepcan-12 derivative pepcan-F4 was determined using CHO-K1-hCB2 cells as previously described. Equilibrium saturation binding was determined experimentally, and maximal specific binding (saturation) was reached already at 5 min at 37 °C. Different concentrations of pepcans and 100 nM pepcan-F4 were incubated together with […] suspended in 200 μL of binding buffer in silanized plastic tubes, under shaking for 60 min at 37 °C. After centrifugation at 4 °C and washing with ice-cold binding buffer, the cells were resuspended in ice-cold PBS and transferred into 96-well black plates, where the fluorescence intensities were measured using a Tecan Farcyte reader (485 nm excitation/535 nm emission). The specific binding was determined after washing and subtracting the nonspecific fluorescence calculated in parallel experiments carried out in non-transfected CHO cells.

The target of data set [4] is T1, hCB2 receptor. Kind of data set: Radioligand binding assays with [3H]CP55,940 and [3H]WIN55,212-2 on CHO-K1-hCB2 membranes. Also noted: expressed in transfected cells; host or cells: CHO-K1. Conditions: for enhancement of [3H]CP55,940 and [3H]WIN55,212-2 receptor binding: 100 nM and 1 μM; for Kb: pKB, ternary complex model. On the procedure: After the incubation time, membrane suspensions were rapidly filtered through a 0.1% polyethyleneimine presoaked 96-well microplate bonded with GF/B glass fiber filters (UniFilter-96 GF/B, PerkinElmer Life Sciences) under vacuum and washed 12 times with 150 μL of ice-cold binding buffer Filters were added with 40 μL of MicroScint20 scintillation liquid, and radioactivity was measured with the Trilux top counter (PerkinElmer Life Sciences). Data were collected from 3–10 independent experiments, each performed in triplicate, and the nonspecific binding was subtracted. The results are expressed as a percentage of vehicle-treated samples.

Data set [5] deals with T1, hCB2 receptor. Description: Dissociation kinetics of [3H]CP55,940 by isotopic dilution. It counts as binding. Set-up: expressed in transfected cells. Conditions: 1 μM CP55,940 added to bound [3H]CP55,940 (0.5 nM), 300 nM pepcan-12. On the procedure: Dissociation kinetics experiments were performed as described before. […] […] […] After the incubation time, membrane suspensions were rapidly filtered through a 0.1% polyethyleneimine presoaked 96-well microplate bonded with GF/B glass fiber filters and washed as described above.

T1 sequence (P34972 whole entry): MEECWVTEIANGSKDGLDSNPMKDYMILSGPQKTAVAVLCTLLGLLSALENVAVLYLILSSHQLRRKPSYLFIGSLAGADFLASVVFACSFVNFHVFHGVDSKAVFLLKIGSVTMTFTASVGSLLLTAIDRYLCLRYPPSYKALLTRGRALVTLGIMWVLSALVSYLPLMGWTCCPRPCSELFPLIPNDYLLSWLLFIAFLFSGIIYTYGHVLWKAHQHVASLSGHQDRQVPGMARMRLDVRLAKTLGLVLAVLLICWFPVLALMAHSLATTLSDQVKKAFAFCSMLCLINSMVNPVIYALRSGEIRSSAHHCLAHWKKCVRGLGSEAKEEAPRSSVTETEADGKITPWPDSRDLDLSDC

Turning to `CCCCC/C=C\C/C=C\C/C=C\C/C=C\CCCC(=O)OC(CO)CO` [Pepcan 2-AG, 2-arachidonoyl glycerol], the EC50 came to 0.0921 µM at hCB2 receptor [1] (pepcan-12 0 nM); 0.102 µM on hCB2 receptor [1] (pepcan-12 10 nM); 0.0251 µM at hCB2 receptor [1] (pepcan-12 30 nM); 0.0124 µM at hCB2 receptor [1] (pepcan-12 100 nM); 0.0958 µM at hCB2 receptor [2] (pepcan-12 0 nM); 0.0649 µM on hCB2 receptor [2] (pepcan-12 10 nM). Also, the EC50 on hCB2 receptor [2] (pepcan-12 30 nM) came to 0.0409 µM; on hCB2 receptor [2] (pepcan-12 100 nM) it was 0.0354 µM. Besides, the “[35S]GTPγS assay Max. Effect” value on hCB2 receptor [2] (pepcan-12 0 nM) was 235 (220–251) % of crtl; on hCB2 receptor [2] (pepcan-12 10 nM), 238 (221–251) % of crtl; at hCB2 receptor [2] (pepcan-12 30 nM), 254 (237–272) % of crtl; at hCB2 receptor [2] (pepcan-12 100 nM), 291 (265–318) % of crtl.

Consider HAHKLRVDPVNFKLLSH [Pepcan-17], for which the Ki at hCB2 receptor [3] turned out to be 0.183 ± 0.0394 µM.

At hCB2 receptor [3], HKLRVDPVNFKLLSH [Pepcan-15] registered a Ki of 0.0778 ± 0.0082 µM. Against the preceding compound, the Ki is about 2.4-fold lower.

In the case of KLRVDPVNFKLLSH [Pepcan-14], at hCB2 receptor [1] (no orthosteric ligand), the “effect on cAMP levels in absence of agonist” value is recorded as “Lack of effects”. Also, the “effect on [35S]GTPγS binding in absence of agonist” value on hCB2 receptor [2] (no orthosteric ligand) was “Lack of effects”. Also, on hCB2 receptor [4], the “enhancement of [3H]CP55,940 and [3H]WIN55,212-2 receptor binding” value is listed as “weaker yet still significant effects”.

Regarding RVDPVNFKLLSH [Pepcan-12], on hCB2 receptor [5], the “Half-life (fast)” value is 0.844 (0.703 to 1.057) min and the “Half-life (slow)” value was 49.90 (29.3 to 169.3) min. Further, the Kb on hCB2 receptor [4] ([3H]CP55,940 bound) was 0.0589 µM. This compound also had a Kb on hCB2 receptor [4] ([3H]WIN55,212-2 bound) of 0.0537 µM. Further, the Ki at hCB2 receptor [3] is 0.0447 µM and ~0.05 µM.

In the case of “SALSDLHAHKLRVDPVNFKLLSH [Pepcan-23, putative precursor of pepcan-12]”, in the data set with hCB2 receptor [4], the “enhancement of [3H]CP55,940 and [3H]WIN55,212-2 receptor binding” value is “did not exhibit any receptor interaction”.

With SDLHAHKLRVDPVNFKLLSH [Pepcan-20], at hCB2 receptor [3], the Ki was above 10 µM.

Regarding “pepcan-F4: C-terminal fluorescence-labeled (fluorescein) pepcan-12 conjugate (RVDPVNFKLLSH; synthetic pepcan-12 (alpha-hemoglobin fragment)”, the Kd with hCB2 receptor [3] (specific saturation curve, read-out: apparent Kd for hCB2 receptors) amounted to 0.123 ± 0.0412 µM.

The values above are taken from article PMC5573408, “Pepcan-12 (RVD-hemopressin) is a CB2 receptor positive allosteric modulator constitutively secreted by adrenals and in liver upon tissue damage” (Scientific Reports, 2017).
